Results taken from US20020028836A1, “Potassium channel openers” (priority 2000, published 2002).
Like-named read-outs stand apart in the source and are kept apart here.

System: tissue strips obtained from Landrace pig bladders
Experiment: Functional potassium channel opening activity in isolated bladder strips (field-stimulated twitch)
Conditions: for Index: ED50 for P1075 divided by ED50 for the test agonist in a given tissue, averaged; for EC50: amount of agent necessary to cause 50% of the agent's maximal response, read-out: ED50 (the source's name); for Emax / Efficacy (% P1075): maximal efficacy relative to P1075, field stimulation 0.05 Hz, 0.5 ms, 20 volts
Experimental: Compounds were evaluated for functional potassium channel opening activity using tissue strips obtained from Landrace pig bladders.
Landrace pig bladders were obtained from female Landrace pigs of 9-30 kg. Landrace pigs were euthanized with an intraperitoneal injection of pentobarbital solution, Somlethal®, J. A. Webster Inc., Sterling, Mass. The entire bladder was removed and immediately placed into Krebs Ringer bicarbonate solution (composition, mM: NaCl, 120; NaHCO3, 20; dextrose, 11; KCl, 4.7; CaCl2, 2.5; MgSO4, 1.5; KH2PO4, 1.2; K2EDTA, 0.01, equilibrated with 5% CO2/95% O2pH 7.4 at 37° C.). Propranolol (0.004 mM) was included in all of the assays to block β-adrenoceptors. The trigonal and dome portions were discarded. Strips 3-5 mm wide and 20 mm long were prepared from the remaining tissue cut in a circular fashion. The mucosal layer was removed. One end was fixed to a stationary glass rod and the other to a Grass FT03 transducer at a basal preload of 1.0 gram. Two parallel platinum electrodes were included in the stationary glass rod to provide field stimulation of 0.05 Hz, 0.5 milli-seconds at 20 volts. This low frequency stimulation produced a stable twitch response of 100-500 centigrams. Tissues were allowed to equilibrate for at least 60 minutes and primed with 80 mM KCl. A control concentration response curve (cumulative) was generated for each tissue using the potassium channel opener P1075 as the control agonist. […] After a 60 minute rinsing period, a concentration response curve (cumulative) was generated for the test agonist in the same fashion as that used for the control agonist P1075. The maximal efficacy of each compound (expressed as % relative to P1075) is reported. The amount of agent necessary to cause 50% of the agent's maximal response (ED50) was calculated using “ALLFIT” (DeLean et al., Am. J. Physiol., 235, E97 (1980)), hereby incorporated by reference. Agonist potencies were also expressed as an index relative to P1075. The index was calculated by dividing the ED50 for P1075 by the ED50 for the test agonist in a given tissue. Each tissue was used for only one test agonist, and the indices obtained from each tissue were averaged to provide an average index of potency.

| Structure (SMILES) | Index | EC50 (Sus scrofa) | Emax (Sus scrofa) | EC50 | Efficacy (% P1075) | stimulated twitch / stimulated contractions of the bladder (P1075: 10^−9 to 10^−5 M, cumulative, ½ log increments) |
| --- | --- | --- | --- | --- | --- | --- |
| CC(Cl)(Cl)C(NC(=O)c1cc(F)cc(F)c1)NC(=NC#N)Nc1cccnc1 (stereo not shown) [Example 120, N-(2,2-dichloro-1-{[(cyanoimino)(3-pyridinylamino)methyl]amino}propyl)-3,5-difluorobenzamide] | 0.017 | 7.5 µM | 84% | – | – | – |
| CC(C)(C)CC(NC(=O)c1ccc(Br)cc1)NC(=NS(=O)(=O)C(F)(F)F)Nc1cccnc1 (stereo not shown) [Example 188, 4-bromo-N-{3,3-dimethyl-1-[((3-pyridinylamino){[(trifluoromethyl)sulfonyl]imino}methyl)amino]butyl}benzamide] | 0.020 | 10 µM | 87% | – | – | – |
| COc1ncccc1NC(=NC#N)NC(NC(=O)c1cccc(Cl)c1)C(C)(Cl)Cl (stereo not shown) [Example 174, 3-chloro-N-[2,2-dichloro-1-({(cyanoimino)[(2-methoxy-3-pyridinyl)amino]methyl}amino)propyl]benzamide] | 2.2 | 1.2 µM | 34% | – | – | – |
| CC(Cl)(Cl)C(NC(=O)c1ccc(Cl)cc1)NC(=NC#N)Nc1ccccc1F (stereo not shown) [Example 175, 4-chloro-N-(2,2-dichloro-1-{[(cyanoimino)(2-fluoroanilino)methyl]amino}propyl)benzamide] | 0.148 | 1.5 µM | 54% | – | – | – |
| CC(Cl)(Cl)C(NC(=O)c1cccc(Cl)c1)NC(=NC#N)Nc1cccnc1 (stereo not shown) [Example 119, 3-chloro-N-(2,2-dichloro-1-{[(cyanoimino)(3-pyridinylamino)methyl]amino}propyl)benzamide] | 0.939 | 3.4 µM | 78% | – | – | – |
| CC(C)(C)CC(NC(=O)c1ccc(Cl)cc1)NC(=NS(=O)(=O)C(F)(F)F)Nc1cccnc1 (stereo not shown) [Example 142, 4-chloro-N-{3,3-dimethyl-1-[((3-pyridinylamino){[(trifluoromethyl)sulfonyl]imino}methyl)amino]butyl}benzamide] | 0.270 | – | – | 0.6 µM | 44 % P1075 | – |
| CC(Cl)(Cl)C(NC(=O)c1ccc(Cl)cc1)NC(=NC#N)Nc1cccnc1 (single isomer, unassigned; (+)) [Example 118, (+) 4-chloro-N-(2,2-dichloro-1-{[(cyanoimino)(3-pyridinylamino)methyl]amino}propyl)benzamide] | 0.006 | – | – | 22 µM | 69 % P1075 | – |
| CC(Cl)(Cl)C(NC(=O)c1ccc(Cl)cc1)NC(=NC#N)Nc1ccc(F)nc1 (stereo not shown) [Example 180, 4-chloro-N-[2,2-dichloro-1-({(cyanoimino)[(6-fluoro-3-pyridinyl)amino]methyl}amino)propyl]benzamide] | 0.040 | 2.3 µM | 98% | – | – | – |
| N#CN=C(Nc1cccnc1)NC(NC(=O)c1ccc(Cl)cc1)C(F)(F)C(F)(F)F (stereo not shown) [Example 121, 4-chloro-N-(1-{[(cyanoimino)(3-pyridinylamino)methyl]amino}-2,2,3,3,3-pentafluoropropyl)benzamide] | 0.044 | 4.8 µM | 89% | – | – | – |
| CC(C)(C)C(NC(=O)c1cc(F)cc(F)c1)NC(=NC#N)Nc1cccnc1 (stereo not shown) [Example 110, N-(1-{[(cyanoimino)(3-pyridinylamino)methyl]amino}-2,2-dimethylpropyl)-3,5-difluorobenzamide] | 0.017 | 6.2 µM | 61% | – | – | – |
| CCC(C)(C)N=C(NC#N)Nc1cccnc1 [Example P1075, reference compound] | – | – | – | – | – | completely eliminated the stimulated twitch |
| CC(Cl)(Cl)C(NC(=O)c1cccc(F)c1)NC(=NC#N)Nc1ccc(Cl)nc1 (stereo not shown) [Example 156, N-(2,2-dichloro-1-{[[(6-chloro-3-pyridinyl)amino](cyanoimino)methyl]amino}propyl)-3-fluorobenzamide] | 0.048 | 4 µM | 93% | – | – | – |
| CC(Cl)(Cl)C(NC(=O)c1cccc(Cl)c1)NC(=NC#N)Nc1cccc(F)c1 (stereo not shown) [Example 169, 3-chloro-N-(2,2-dichloro-1-{[(cyanoimino)(3-fluoroanilino)methyl]amino}propyl)benzamide] | 0.231 | 5 µM | 75% | – | – | – |
| CC(Cl)(Cl)C(NC(=O)c1cc(F)cc(F)c1)NC(=NC#N)Nc1ccc(C(F)(F)F)nc1 (stereo not shown) [Example 155, N-{2,2-dichloro-1-[((cyanoimino){[6-(trifluoromethyl)-3-pyridinyl]amino}methyl)amino]propyl}-3,5-difluorobenzamide] | 0.022 | 2.5 µM | 95% | – | – | – |
| CC(Cl)(Cl)C(NC(=O)c1ccc(Cl)cc1)NC(=NC#N)Nc1ccc(Cl)nc1 (single isomer, unassigned; (+)) [Example 162, (+) 4-chloro-N-(2,2-dichloro-1-{[[(6-chloro-3-pyridinyl)amino](cyanoimino)methyl]amino}propyl)benzamide] | 0.025 | – | – | 9 µM | 87 % P1075 | – |
| CC(C)(C)C(NC(=O)c1ccc(Cl)cc1)NC(=NC#N)Nc1cnc2ccccc2c1 (stereo not shown) [Example 83, 4-chloro-N-(1-{[(cyanoimino)(3-guinolinylamino)methyl]amino}-2,2-dimethylpropyl)benzamide] | 0.031 | – | – | 2.8 µM | 62 % P1075 | – |
| CC(Cl)(Cl)C(NC(=O)c1cccc(Cl)c1)NC(=NC#N)Nc1ccccc1F (stereo not shown) [Example 172, 3-chloro-N-(2,2-dichloro-1-{[(cyanoimino)(2-fluoroanilino)methyl]amino}propyl)benzamide] | 0.507 | 0.49 µM | 53% | – | – | – |
| CC(Cl)(Cl)C(NC(=O)c1cccs1)NC(=NC#N)Nc1ccc(Cl)nc1 (stereo not shown) [Example 192, N-(2,2-dichloro-1-{[[(6-chloro-3-pyridinyl)amino](cyanoimino)methyl]amino}propyl)-2-thiophenecarboxamide] | 0.019 | 3.1 µM | 99% | – | – | – |
| CC(Cl)(Cl)C(NC(=O)c1ccc(Cl)cc1)NC(=NC#N)Nc1ccc(Cl)nc1 (single isomer, unassigned; (-)) [Example 161, (−) 4-chloro-N-(2,2-dichloro-1-{[[(6-chloro-3-pyridinyl)amino](cyanoimino)methyl]amino}propyl)benzamide] | 0.108 | – | – | 4 µM | 93 % P1075 | – |
| CC(Cl)(Cl)C(NC(=O)c1ccc(Cl)cc1)NC(=NC#N)Nc1cccnc1 (single isomer, unassigned; (-)) [Example 117, (−) 4-chloro-N-(2,2-dichloro-1-{[(cyanoimino)(3-pyridinylamino)methyl]amino}propyl)benzamide] | 0.030 | – | – | 5.8 µM | 79 % P1075 | – |
| CC(C)(C)CC(NC(=O)c1ccc(Cl)cc1)NC(=N[N+](=O)[O-])Nc1cccnc1 (single isomer, unassigned; (+)) [Example 125, (+) 4-chloro-N-(1-{[(nitroimino)(3-pyridinylamino)methyl]amino}-3,3-dimethylbutyl)benzamide] | 0.030 | – | – | 9.2 µM | 92 % P1075 | – |
| CC(C)(C)CC(NC(=O)c1ccc(C(F)(F)F)cc1)NC(=NS(=O)(=O)C(F)(F)F)Nc1cccnc1 (stereo not shown) [Example 189, N-{3,3-dimethyl-1-[((3-pyridinylamino){[(trifluoromethyl)sulfonyl]imino}methyl)amino]butyl}-4-(trifluoromethyl)benzamide] | 0.078 | 0.93 µM | 66% | – | – | – |
| CC(Cl)(Cl)C(NC(=O)c1ccc(Cl)cc1)NC(=NC#N)Nc1cccnc1Cl (stereo not shown) [Example 168, 4-chloro-N-(2,2-dichloro-1-{[[(2-chloro-3-pyridinyl)amino](cyanoimino)methyl]amino}propyl)benzamide] | 0.064 | 0.89 µM | 92% | – | – | – |
| CC(C)(C)CC(NC(=O)c1ccc(Cl)cc1)NC(=NS(=O)(=O)C(F)(F)F)Nc1cccnc1 (single isomer, unassigned; (-)) [Example 187, (−) 4-chloro-N-{3,3-dimethyl-1-[((3-pyridinylamino){[(trifluoromethyl)sulfonyl]imino}methyl)amino]butyl}benzamide] | 0.077 | – | – | 7.8 µM | 52 % P1075 | – |
